According to patent publication US12532661B2, “Compound and organic light emitting device comprising the same” (LG Chem, Ltd., priority 2020, dated 2026):

Assay: Solubility experiment in cyclohexanone (CHON)
Assay type: physicochemical
Conditions: normal temperature/pressure, whether 0.1 wt % or more was dissolved
Method: In order to confirm the solubility in the solvent used in the solution process of the compounds prepared in the Preparation Examples and the comparative compounds, each of them was dissolved in the solvent cyclohexanone (CHON) under normal temperature/pressure conditions, and it was confirmed whether 0.1 wt % or more was dissolved.

Row | Structure (SMILES) | Solubility, Solvent CHON
1 | Cc1cccc(N(c2ccc3c4c5ccc6c(c5ccc4n(-c4ccccc4)c3c2)c2ccc(N(c3ccc4c5c7ccc8c(c7ccc5n(-c5ccccc5)c4c3)c3ccc(N(c4cccc(C)c4)c4cccc5c4oc4ccccc45)cc3n8-c3ccccc3)c3ccc4c5c7ccc8c(c7ccc5n(-c5ccccc5)c4c3)c3ccc(N(c4cccc(C)c4)c4cccc5c4oc4ccccc45)cc3n8-c3ccccc3)cc2n6-c2ccccc2)c2cccc3c2oc2ccccc23)c1 [Compound 1] | ○ (Evaluation list (○): 0.1 wt. % or more soluble)
2 | c1ccc(-n2c3ccccc3c3cc(-c4ccc(N(c5ccc6ccccc6c5)c5ccc6c7c8ccc9c(c8ccc7n(-c7ccccc7)c6c5)c5ccc(N(c6ccc7c8c%10ccc%11c(c%10ccc8n(-c8ccccc8)c7c6)c6ccc(N(c7ccc(-c8ccc%10c(c8)c8ccccc8n%10-c8ccccc8)cc7)c7ccc8ccccc8c7)cc6n%11-c6ccccc6)c6ccc7c8c%10ccc%11c(c%10ccc8n(-c8ccccc8)c7c6)c6ccc(N(c7ccc(-c8ccc%10c(c8)c8ccccc8n%10-c8ccccc8)cc7)c7ccc8ccccc8c7)cc6n%11-c6ccccc6)cc5n9-c5ccccc5)cc4)ccc32)cc1 [Compound 3] | ○ (Evaluation list (○): 0.1 wt. % or more soluble)
3 | Cc1cccc(N(c2ccc3c4c5ccc6c(c5ccc4n(-c4ccccc4)c3c2)c2ccc(-c3cc(-c4ccc5c7c8ccc9c(c8ccc7n(-c7ccccc7)c5c4)c4ccc(N(c5cccc(C)c5)c5cccc7c5oc5ccccc57)cc4n9-c4ccccc4)cc(-c4ccc5c7c8ccc9c(c8ccc7n(-c7ccccc7)c5c4)c4ccc(N(c5cccc(C)c5)c5cccc7c5oc5ccccc57)cc4n9-c4ccccc4)c3)cc2n6-c2ccccc2)c2cccc3c2oc2ccccc23)c1 [Compound 4] | ○ (Evaluation list (○): 0.1 wt. % or more soluble)
4 | CC(C)(C)c1ccc(N(c2ccc(C(C)(C)C)cc2)c2ccc3c4c5ccc6c(c5ccc4n(-c4ccccc4)c3c2)c2ccc(-c3cc(-c4ccc5c7c8ccc9c(c8ccc7n(-c7ccccc7)c5c4)c4ccc(N(c5ccc(C(C)(C)C)cc5)c5ccc(C(C)(C)C)cc5)cc4n9-c4ccccc4)cc(-c4ccc5c7c8ccc9c(c8ccc7n(-c7ccccc7)c5c4)c4ccc(N(c5ccc(C(C)(C)C)cc5)c5ccc(C(C)(C)C)cc5)cc4n9-c4ccccc4)c3)cc2n6-c2ccccc2)cc1 [Compound 5] | ○ (Evaluation list (○): 0.1 wt. % or more soluble)
5 | CC(C)(C)c1ccc(N(c2ccc(C(C)(C)C)cc2)c2ccc3c4c5ccc6c(c5ccc4n(-c4ccccc4)c3c2)c2ccc(N(c3ccc(C(C)(C)C)cc3)c3cc(N(c4ccc(C(C)(C)C)cc4)c4ccc5c7c8ccc9c(c8ccc7n(-c7ccccc7)c5c4)c4ccc(N(c5ccc(C(C)(C)C)cc5)c5ccc(C(C)(C)C)cc5)cc4n9-c4ccccc4)cc(N(c4ccc(C(C)(C)C)cc4)c4ccc5c7c8ccc9c(c8ccc7n(-c7ccccc7)c5c4)c4ccc(N(c5ccc(C(C)(C)C)cc5)c5ccc(C(C)(C)C)cc5)cc4n9-c4ccccc4)c3)cc2n6-c2ccccc2)cc1 [Compound 12] | ○ (Evaluation list (○): 0.1 wt. % or more soluble)
6 | Cc1cccc(N(c2ccc3c4c5ccc6c(c5ccc4n(-c4ccccc4)c3c2)c2ccc(Oc3cc(Oc4ccc5c7c8ccc9c(c8ccc7n(-c7ccccc7)c5c4)c4ccc(N(c5cccc(C)c5)c5cccc7c5oc5ccccc57)cc4n9-c4ccccc4)cc(Oc4ccc5c7c8ccc9c(c8ccc7n(-c7ccccc7)c5c4)c4ccc(N(c5cccc(C)c5)c5cccc7c5oc5ccccc57)cc4n9-c4ccccc4)c3)cc2n6-c2ccccc2)c2cccc3c2oc2ccccc23)c1 [Compound 14] | ○ (Evaluation list (○): 0.1 wt. % or more soluble)
7 | Cc1cccc(N(c2ccc3c4c5ccc6c(c5ccc4n(-c4ccccc4)c3c2)c2ccc(Oc3cccc(-c4cc(-c5cccc(Oc7ccc8c9c%10ccc%11c(c%10ccc9n(-c9ccccc9)c8c7)c7ccc(N(c8cccc(C)c8)c8cccc9c8oc8ccccc89)cc7n%11-c7ccccc7)c5)cc(-c5cccc(Oc7ccc8c9c%10ccc%11c(c%10ccc9n(-c9ccccc9)c8c7)c7ccc(N(c8cccc(C)c8)c8cccc9c8oc8ccccc89)cc7n%11-c7ccccc7)c5)c4)c3)cc2n6-c2ccccc2)c2cccc3c2oc2ccccc23)c1 [Compound 15] | ○ (Evaluation list (○): 0.1 wt. % or more soluble)
8 | Cc1cccc(N(c2ccc3c4c5ccc6c(c5ccc4n(-c4ccccc4)c3c2)c2ccc(Oc3ccc(-c4cc(-c5ccc(Oc7ccc8c9c%10ccc%11c(c%10ccc9n(-c9ccccc9)c8c7)c7ccc(N(c8cccc(C)c8)c8cccc9c8oc8ccccc89)cc7n%11-c7ccccc7)cc5)cc(-c5ccc(Oc7ccc8c9c%10ccc%11c(c%10ccc9n(-c9ccccc9)c8c7)c7ccc(N(c8cccc(C)c8)c8cccc9c8oc8ccccc89)cc7n%11-c7ccccc7)cc5)c4)cc3)cc2n6-c2ccccc2)c2cccc3c2oc2ccccc23)c1 [Compound 16] | ○ (Evaluation list (○): 0.1 wt. % or more soluble)
9 | Cc1cccc(N(c2ccc3c(c2)c2c4ccc5c(c4ccc2n3-c2ccccc2)c2cc(N(c3ccc4c(c3)c3c6ccc7c(c6ccc3n4-c3ccccc3)c3cc(N(c4cccc(C)c4)c4cccc6c4oc4ccccc46)ccc3n7-c3ccccc3)c3ccc4c(c3)c3c6ccc7c(c6ccc3n4-c3ccccc3)c3cc(N(c4cccc(C)c4)c4cccc6c4oc4ccccc46)ccc3n7-c3ccccc3)ccc2n5-c2ccccc2)c2cccc3c2oc2ccccc23)c1 [Compound 17] | ○ (Evaluation list (○): 0.1 wt. % or more soluble)
10 | Cc1cccc(N(c2cccc3c2oc2ccccc23)c2cccc3c2c2c4ccc5c(c4ccc2n3-c2ccccc2)c2c(N(c3cccc4c3c3c6ccc7c(c6ccc3n4-c3ccccc3)c3c(N(c4cccc(C)c4)c4cccc6c4oc4ccccc46)cccc3n7-c3ccccc3)c3cccc4c3c3c6ccc7c(c6ccc3n4-c3ccccc3)c3c(N(c4cccc(C)c4)c4cccc6c4oc4ccccc46)cccc3n7-c3ccccc3)cccc2n5-c2ccccc2)c1 [Compound 19] | ○ (Evaluation list (○): 0.1 wt. % or more soluble)
